The values below come from US20130116291A1, “ASSOCIATION OF XANTHINE OXIDASE INHIBITORS AND STATINS AND USE THEREOF” (Menarini International Operations Luxembourg S.A., priority 2010, published 2013).

For the experiment, the system named is Wistar rats subjected to a cholesterol-rich (2%) diet. Kind of experiment: Hypocholesterolemic activity in rats on a cholesterol-rich diet (plasma total cholesterol). The format is in vivo, rat. The conditions noted are these: for Diminution of plasma total cholesterol in rats: cholesterol-rich (2%) diet. As for the experimental part:
Plasma levels of total cholesterol were measured with a standard colorimetric enzymatic method. […] Plasma levels of total cholesterol were determined at one-week intervals. Blood was collected from a tail vein.

Regarding `CC(C)c1c(C(=O)Nc2ccccc2)c(-c2ccccc2)c(-c2ccc(F)cc2)n1CC[C@@H](O)C[C@@H](O)CC(=O)O` [Atorvastatin, atorvastatin], the “Reduction of the cholesterolemia values (in words)” value (doses of 5 and 10 mg/kg, starting from the first week of treatment) is “significant and dose-dependent reduction”. Further, the “Maximum reduction of the cholesterolemia values” (highest dose (10 mg/kg, as calcium salt, per os daily), peak at 2 weeks, constant in the successive weeks) is 80%.
`Cc1nc(-c2ccc(OCC(C)C)c(C#N)c2)sc1C(=O)O` [Febuxostat, febuxostat]: the “Diminution of plasma total cholesterol in rats” value reads like this: (1 mg/Kg orally by gavage once per day for 4 weeks) “No diminution”; (5 mg/Kg orally by gavage once per day for 4 weeks) “No diminution”; ([…] orally by gavage once per day for 4 weeks) “No diminution”. Further, the “Effect on cholesterol levels in the 4 weeks of observation” value (highest dose, 5 mg/kg per day, per os, Wistar rats, cholesterol-rich diet) is on record as “did not significantly modify”.
